Values quoted from earlier work as cited in patent publication US11648313B2, “Multimodal therapy for cancer cell destruction” (Southeast Missouri State University, priority 2015, dated 2023).

Columns and labels:
FAK = FAK (Homo sapiens, UniProt Q05397)
NF-kB = settings: neuroblastoma cells

Sequence of FAK (Q05397 whole entry): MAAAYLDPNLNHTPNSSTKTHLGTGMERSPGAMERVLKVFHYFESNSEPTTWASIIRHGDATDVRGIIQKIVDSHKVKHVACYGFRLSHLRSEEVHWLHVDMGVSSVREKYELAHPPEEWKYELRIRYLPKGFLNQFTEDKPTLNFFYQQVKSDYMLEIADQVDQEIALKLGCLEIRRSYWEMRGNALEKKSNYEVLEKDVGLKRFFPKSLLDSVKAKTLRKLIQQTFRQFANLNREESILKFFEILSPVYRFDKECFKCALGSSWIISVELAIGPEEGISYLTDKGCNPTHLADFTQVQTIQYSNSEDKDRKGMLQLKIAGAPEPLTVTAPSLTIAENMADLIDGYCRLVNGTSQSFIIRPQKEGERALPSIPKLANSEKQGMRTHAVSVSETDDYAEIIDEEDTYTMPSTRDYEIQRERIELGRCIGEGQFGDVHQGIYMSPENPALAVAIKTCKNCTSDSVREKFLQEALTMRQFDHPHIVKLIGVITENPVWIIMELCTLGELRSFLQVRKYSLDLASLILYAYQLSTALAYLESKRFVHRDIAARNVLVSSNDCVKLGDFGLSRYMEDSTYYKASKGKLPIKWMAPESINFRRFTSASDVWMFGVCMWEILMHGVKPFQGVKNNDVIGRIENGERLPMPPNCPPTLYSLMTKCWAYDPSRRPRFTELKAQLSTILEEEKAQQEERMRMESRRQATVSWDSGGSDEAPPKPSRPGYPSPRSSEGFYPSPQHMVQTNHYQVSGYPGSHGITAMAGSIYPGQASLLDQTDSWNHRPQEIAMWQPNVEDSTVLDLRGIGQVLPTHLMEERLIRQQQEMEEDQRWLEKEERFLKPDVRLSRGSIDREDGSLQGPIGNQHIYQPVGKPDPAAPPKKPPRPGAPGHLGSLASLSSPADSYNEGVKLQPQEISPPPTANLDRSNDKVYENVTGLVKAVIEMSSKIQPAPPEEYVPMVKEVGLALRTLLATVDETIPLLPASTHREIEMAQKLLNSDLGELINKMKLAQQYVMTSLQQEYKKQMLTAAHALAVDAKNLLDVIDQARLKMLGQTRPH

## CNC(=O)c1ccccc1Nc1nc(Nc2ccc(N3CCOCC3)cc2OC)ncc1Cl [NVP-TAE 226]
other
  water solubility: adequate water solubility
FAK
  effect of FAK inhibition on cell survival, apoptosis, cell cycle: decreased cell survival, increased apoptosis, and G2 cell cycle arrest

## COc1cc([C@@H]2c3cc4c(cc3[C@@H](O[C@@H]3O[C@@H]5CO[C@@H](C)O[C@H]5[C@H](O)[C@H]3O)[C@H]3COC(=O)[C@H]23)OCO4)cc(OC)c1O [VP16]
NF-kB
  NF-kB activation: trigger NF-kB activation

## Cl.Cl.Cl.Cl.Nc1cc(N)c(N)cc1N [Y15]
other
  water solubility: adequate water solubility
FAK
  effect of FAK inhibition on cell survival, apoptosis, cell cycle: decreased cell survival, increased apoptosis, and G2 cell cycle arrest

## COc1cccc2c1C(=O)c1c(O)c3c(c(O)c1C2=O)C[C@@](O)(C(=O)CO)C[C@@H]3O[C@H]1C[C@H](N)[C@H](O)[C@H](C)O1 [doxorubicin]
NF-kB
  NF-kB activation: trigger NF-kB activation
